{"source": "paper PMC5108698", "about": "(Biopolymers, 2016)", "key": {"pancreatic trypsin": {"target": "pancreatic trypsin (Sus scrofa, UniProt P00761)", "sequence (P00761 9-231)": "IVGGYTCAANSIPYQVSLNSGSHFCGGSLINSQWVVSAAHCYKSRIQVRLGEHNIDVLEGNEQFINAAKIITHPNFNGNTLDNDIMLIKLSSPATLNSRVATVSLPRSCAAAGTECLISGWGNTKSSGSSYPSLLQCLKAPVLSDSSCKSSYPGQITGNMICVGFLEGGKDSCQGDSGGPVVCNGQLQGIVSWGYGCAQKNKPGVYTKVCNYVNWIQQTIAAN", "experiment": "Trypsin inhibitory assay", "format": "biochemical", "settings": "recombinantly produced SFTI-1"}, "[1]": {"experiment": "NMR characterization in solution", "format": "physicochemical", "settings": "in-cell produced SFTI-1, approximately 0.2 mM, 80 mM potassium phosphate pH 6.5, 90% H2O/10% 2H2O, 298 K"}, "[2]": {"system": "trypsin (trypsin-sepharose beads)", "settings": "incubated with trypsin; ref [34]; cited from earlier work"}, "[3]": {"settings": "ref [10], [12]; cited from earlier work"}, "mammalian cells": {"system": "mammalian cells", "settings": "ref [13]; cited from earlier work"}, "cellular membranes": {"system": "cellular membranes", "settings": "ref [13]; cited from earlier work"}}, "note": "“Also recorded” adds a separate entry of the source."}
{"compound": "CC[C@H](C)[C@@H]1NC(=O)[C@@H]2CCCN2C(=O)[C@@H]2CCCN2C(=O)[C@H]([C@@H](C)CC)NC(=O)[C@H](CO)NC(=O)[C@H](CCCCN)NC(=O)[C@H]([C@@H](C)O)NC(=O)[C@@H]2CSSC[C@H](NC1=O)C(=O)N[C@@H](Cc1ccccc1)C(=O)N1CCC[C@H]1C(=O)N[C@@H](CC(=O)O)C(=O)NCC(=O)N[C@@H](CCCNC(=N)N)C(=O)N2", "note": "[SFTI-1, sunflower trypsin inhibitor 1]", "values": [{"measurement": "inhibition of trypsin", "setting": "pancreatic trypsin", "value": "actively inhibit trypsin; also recorded: fully active"}, {"measurement": "aggregation state in solution", "setting": "[1]", "value": "monodispersed"}, {"measurement": "equilibrium between cyclic and linear forms with trypsin", "setting": "[2]", "value": "reach equilibrium between the cyclic and the linear forms when incubated with trypsin"}, {"measurement": "stability to thermal or enzymatic degradation", "setting": "[3]", "value": "exceptional stability to thermal or enzymatic degradation"}, {"measurement": "toxicity to mammalian cells", "setting": "mammalian cells", "value": "non-toxic to mammalian cells"}, {"measurement": "crossing of cellular membranes", "setting": "cellular membranes", "value": "able to cross cellular membranes"}]}
